In brackets after ≈: the same amount, converted by molar mass.
Columns and labels:
[1] = molecular target: Receptor-type tyrosine-protein kinase FLT3 (Homo sapiens) (UniProt P36888); assay: Inhibition of FLT3 (unknown origin) at 200 nM by electrophoretic mobility shift assay
[2] = molecular target: Ephrin type-B receptor 4 (Homo sapiens) (UniProt P54760); assay: Inhibition of EPHB4 (unknown origin) at 200 nM by electrophoretic mobility shift assay
[3] = molecular target: Mitogen-activated protein kinase kinase kinase 9 (Homo sapiens) (UniProt P80192); assay: Inhibition of MLK1 (unknown origin) at 200 nM by ELISA
[4] = molecular target: T1, Glycogen synthase kinase-3 beta (Homo sapiens, UniProt P49841); assay: Inhibition of GSK3beta (unknown origin) at 200 nM by electrophoretic mobility shift assay
Target sequence in this assay (P49841 whole entry, looked up): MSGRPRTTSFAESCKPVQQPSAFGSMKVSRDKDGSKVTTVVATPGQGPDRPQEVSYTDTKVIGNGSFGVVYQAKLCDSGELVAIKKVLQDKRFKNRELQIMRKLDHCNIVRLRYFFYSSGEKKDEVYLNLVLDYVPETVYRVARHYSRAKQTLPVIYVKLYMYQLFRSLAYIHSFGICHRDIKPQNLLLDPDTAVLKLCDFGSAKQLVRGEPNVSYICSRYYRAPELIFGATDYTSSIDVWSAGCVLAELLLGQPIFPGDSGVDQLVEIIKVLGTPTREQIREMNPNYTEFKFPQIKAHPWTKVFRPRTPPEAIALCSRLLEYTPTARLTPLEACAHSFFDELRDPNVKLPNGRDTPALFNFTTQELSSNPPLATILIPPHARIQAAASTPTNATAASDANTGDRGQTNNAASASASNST

[5] = molecular target: Protein kinase C alpha type (Homo sapiens) (UniProt P17252); assay: Inhibition of PKCalpha (unknown origin) at 200 nM by electrophoretic mobility shift assay
[6] = molecular target: Tyrosine-protein kinase JAK3 (Homo sapiens) (UniProt P52333); assay: Inhibition of JAK3 (unknown origin) at 200 nM by electrophoretic mobility shift assay
[7] = molecular target: Serine/threonine-protein kinase 4 (Homo sapiens) (UniProt Q13043); assay: Inhibition of MST1 (unknown origin) at 200 nM by electrophoretic mobility shift assay
[8] = molecular target: Tyrosine-protein kinase ITK/TSK (Homo sapiens) (UniProt Q08881); assay: Inhibition of ITK (unknown origin) at 200 nM by electrophoretic mobility shift assay
[9] = molecular target: Tyrosine-protein kinase CSK (Homo sapiens) (UniProt P41240); assay: Inhibition of CSK (unknown origin) at 200 nM by electrophoretic mobility shift assay
[10] = molecular target: Platelet-derived growth factor receptor alpha (Homo sapiens) (UniProt P16234); assay: Inhibition of PDGFRalpha (unknown origin) at 200 nM by electrophoretic mobility shift assay
[11] = molecular target: MAP kinase-activated protein kinase 2 (Homo sapiens) (UniProt P49137); assay: Inhibition of MAPKAPK2 (unknown origin) at 200 nM by electrophoretic mobility shift assay
[12] = molecular target: Mitogen-activated protein kinase 9 (Homo sapiens) (UniProt P45984); assay: Inhibition of JNK2 (unknown origin) at 200 nM by electrophoretic mobility shift assay
[13] = molecular target: Serine/threonine-protein kinase pim-3 (Homo sapiens, UniProt Q86V86); assay: Inhibition of PIM3 (unknown origin) using FL-Peptide 1 (5-FAM-AKRRRLSSLRA-COOH) substrate incubated for 2 hrs by electrophoretic mobility shift assay
CYP1A2 = molecular target: T2, CYP1A2 (Homo sapiens, UniProt P05177); assay: Inhibition of CYP1A2 (unknown origin) at 10 uM; type: ADME
T2 sequence (P05177 whole entry): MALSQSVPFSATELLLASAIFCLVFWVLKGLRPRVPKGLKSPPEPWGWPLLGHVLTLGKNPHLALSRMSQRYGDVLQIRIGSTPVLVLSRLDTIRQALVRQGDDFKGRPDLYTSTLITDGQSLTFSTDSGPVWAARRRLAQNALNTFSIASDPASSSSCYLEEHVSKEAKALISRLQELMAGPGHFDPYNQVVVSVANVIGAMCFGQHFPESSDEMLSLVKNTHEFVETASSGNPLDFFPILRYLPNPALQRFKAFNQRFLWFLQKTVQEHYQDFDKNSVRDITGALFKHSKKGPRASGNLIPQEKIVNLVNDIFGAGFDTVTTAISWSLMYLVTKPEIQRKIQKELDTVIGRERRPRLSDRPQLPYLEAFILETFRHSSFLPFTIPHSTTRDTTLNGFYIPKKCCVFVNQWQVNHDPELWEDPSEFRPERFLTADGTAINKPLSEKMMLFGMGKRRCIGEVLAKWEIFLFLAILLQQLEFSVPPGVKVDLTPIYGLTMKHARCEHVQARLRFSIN

[14] = molecular target: Hepatocyte growth factor receptor (Homo sapiens) (UniProt P08581); assay: Inhibition of MET (unknown origin) at 200 nM by electrophoretic mobility shift assay
[15] = molecular target: Mitogen-activated protein kinase 14 (Homo sapiens) (UniProt Q16539); assay: Inhibition of p38alpha (unknown origin) at 200 nM by electrophoretic mobility shift assay
[16] = molecular target: Insulin-like growth factor 1 receptor (Homo sapiens) (UniProt P08069); assay: Inhibition of IGF1R (unknown origin) at 200 nM by electrophoretic mobility shift assay
[17] = Growth inhibition of human PANC1 cells after 72 hrs by CCK-8 assay; type: functional, cell-based; settings: PANC-1, 72 h
[18] = molecular target: Inhibitor of nuclear factor kappa-B kinase subunit beta (Homo sapiens) (UniProt O14920); assay: Inhibition of IKKbeta (unknown origin) at 200 nM by electrophoretic mobility shift assay
[19] = molecular target: AMP-activated protein kinase, AMPK (Homo sapiens) (UniProt P54646+O43741+P54619+Q9UGJ0+Q9Y478+Q13131+Q9UGI9); assay: Inhibition of AMPKalpha1/beta1/gama1 (unknown origin) at 200 nM by electrophoretic mobility shift assay; type: protein-complex assay
[20] = molecular target: Serine/threonine-protein kinase Sgk1 (Homo sapiens) (UniProt O00141); assay: Inhibition of SGK (unknown origin) at 200 nM by electrophoretic mobility shift assay
[21] = Aqueous solubility in PBS buffer solution at pH 7.4; type: physicochemical
[22] = molecular target: Tyrosine-protein kinase SYK (Homo sapiens) (UniProt P43405); assay: Inhibition of SYK (unknown origin) at 200 nM by electrophoretic mobility shift assay
[23] = Antitumor activity against human PCI66 cells xenografted in BALB/c nu/nu mouse assessed as reduction in tumor volume at 30 mg/kg, ip qd dosed for 5 days followed by 2 days cessation measured 33 days after tumor inoculation relative to control; type: functional
[24] = Growth inhibition of human PCI66 cells after 72 hrs by CCK-8 assay; type: functional, cell-based; settings: PCI66, 72 h
[25] = Growth inhibition of human PCI35 cells after 72 hrs by CCK-8 assay; type: functional, cell-based; settings: PCI35, 72 h
[26] = molecular target: Death-associated protein kinase 1 (Homo sapiens, UniProt P53355); assay: Inhibition of DAPK1 (unknown origin) by electrophoretic mobility shift assay
Mus musculus = assay: Toxicity in BALB/c nu/nu mouse xenografted with human PCI66 cells assessed as affect on body weight at 30 mg/kg, ip qd dosed for 5 days followed by 2 days cessation measured 33 days after tumor inoculation; type: organism-based; settings: in vivo, 792 h
[27] = Growth inhibition of human MIAPaCa2 cells after 72 hrs by CCK-8 assay; type: functional, cell-based; settings: MIA PaCa-2, 72 h
[28] = Growth inhibition of human L3.6PL cells after 72 hrs by CCK-8 assay; type: functional
[29] = molecular target: Serine/threonine-protein kinase pim-1 (Homo sapiens, UniProt P11309); assay: Inhibition of PIM1 (unknown origin) by electrophoretic mobility shift assay
[30] = molecular target: T1, Glycogen synthase kinase-3 beta; assay: Inhibition of GSK3beta (unknown origin) by electrophoretic mobility shift assay

Chain of Inhibitor of nuclear factor kappa-B kinase subunit beta (Homo sapiens) (O14920 whole entry): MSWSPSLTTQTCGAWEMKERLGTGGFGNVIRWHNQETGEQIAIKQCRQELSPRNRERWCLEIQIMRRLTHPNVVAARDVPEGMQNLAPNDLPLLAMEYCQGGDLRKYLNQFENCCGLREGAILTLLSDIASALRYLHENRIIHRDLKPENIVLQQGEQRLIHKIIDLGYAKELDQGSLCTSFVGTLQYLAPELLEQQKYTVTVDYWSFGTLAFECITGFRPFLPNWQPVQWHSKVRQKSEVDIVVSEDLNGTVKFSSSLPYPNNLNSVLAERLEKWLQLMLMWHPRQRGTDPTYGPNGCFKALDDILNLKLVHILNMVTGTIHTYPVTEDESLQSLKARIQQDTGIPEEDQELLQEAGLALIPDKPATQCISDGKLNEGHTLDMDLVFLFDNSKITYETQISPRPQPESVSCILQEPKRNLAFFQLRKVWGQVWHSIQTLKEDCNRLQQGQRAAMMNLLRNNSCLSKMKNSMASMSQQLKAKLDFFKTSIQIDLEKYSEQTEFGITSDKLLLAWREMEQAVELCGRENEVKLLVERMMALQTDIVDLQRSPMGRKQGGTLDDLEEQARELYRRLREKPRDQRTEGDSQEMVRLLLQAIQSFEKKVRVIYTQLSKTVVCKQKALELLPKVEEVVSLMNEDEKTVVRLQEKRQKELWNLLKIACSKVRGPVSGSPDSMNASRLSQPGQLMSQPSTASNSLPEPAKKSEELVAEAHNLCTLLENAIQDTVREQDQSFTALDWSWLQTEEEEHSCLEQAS
Chain of Receptor-type tyrosine-protein kinase FLT3 (Homo sapiens) (P36888 whole entry): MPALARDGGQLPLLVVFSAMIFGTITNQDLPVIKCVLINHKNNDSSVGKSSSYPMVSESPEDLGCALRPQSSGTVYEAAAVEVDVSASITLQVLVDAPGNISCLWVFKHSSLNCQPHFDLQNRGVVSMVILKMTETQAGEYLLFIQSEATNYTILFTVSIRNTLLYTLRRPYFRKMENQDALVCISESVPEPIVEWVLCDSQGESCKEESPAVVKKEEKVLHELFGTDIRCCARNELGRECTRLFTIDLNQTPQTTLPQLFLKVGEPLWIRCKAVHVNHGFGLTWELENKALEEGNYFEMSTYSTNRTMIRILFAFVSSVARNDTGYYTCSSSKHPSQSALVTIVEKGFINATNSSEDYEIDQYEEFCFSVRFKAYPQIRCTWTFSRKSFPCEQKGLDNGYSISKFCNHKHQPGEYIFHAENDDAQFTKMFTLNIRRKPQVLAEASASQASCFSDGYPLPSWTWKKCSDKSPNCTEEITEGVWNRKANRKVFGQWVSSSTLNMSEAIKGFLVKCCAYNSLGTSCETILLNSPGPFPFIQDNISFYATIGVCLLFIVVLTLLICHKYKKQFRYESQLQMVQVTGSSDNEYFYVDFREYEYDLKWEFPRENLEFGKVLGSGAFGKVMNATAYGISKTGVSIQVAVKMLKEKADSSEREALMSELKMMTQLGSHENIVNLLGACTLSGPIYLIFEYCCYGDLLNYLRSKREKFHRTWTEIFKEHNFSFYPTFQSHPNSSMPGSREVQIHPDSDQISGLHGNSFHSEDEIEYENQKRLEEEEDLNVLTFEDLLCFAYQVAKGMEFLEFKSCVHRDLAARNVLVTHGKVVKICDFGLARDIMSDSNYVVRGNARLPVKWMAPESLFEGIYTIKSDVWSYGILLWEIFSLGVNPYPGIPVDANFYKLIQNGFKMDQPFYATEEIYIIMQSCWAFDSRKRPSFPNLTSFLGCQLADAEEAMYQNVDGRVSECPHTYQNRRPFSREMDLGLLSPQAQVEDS
Chain of Serine/threonine-protein kinase Sgk1 (Homo sapiens) (O00141 whole entry): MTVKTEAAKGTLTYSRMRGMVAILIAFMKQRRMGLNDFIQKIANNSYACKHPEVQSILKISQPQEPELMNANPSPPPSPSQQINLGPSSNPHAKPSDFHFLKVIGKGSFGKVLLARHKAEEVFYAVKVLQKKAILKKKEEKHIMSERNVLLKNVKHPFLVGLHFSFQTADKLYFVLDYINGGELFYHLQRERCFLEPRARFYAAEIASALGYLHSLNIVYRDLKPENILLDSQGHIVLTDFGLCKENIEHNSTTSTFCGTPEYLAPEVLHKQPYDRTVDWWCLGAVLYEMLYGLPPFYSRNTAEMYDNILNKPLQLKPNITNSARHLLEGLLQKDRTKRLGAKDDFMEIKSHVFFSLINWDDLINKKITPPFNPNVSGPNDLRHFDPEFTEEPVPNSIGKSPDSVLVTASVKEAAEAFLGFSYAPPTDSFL
Chain of Tyrosine-protein kinase ITK/TSK (Homo sapiens) (Q08881 whole entry): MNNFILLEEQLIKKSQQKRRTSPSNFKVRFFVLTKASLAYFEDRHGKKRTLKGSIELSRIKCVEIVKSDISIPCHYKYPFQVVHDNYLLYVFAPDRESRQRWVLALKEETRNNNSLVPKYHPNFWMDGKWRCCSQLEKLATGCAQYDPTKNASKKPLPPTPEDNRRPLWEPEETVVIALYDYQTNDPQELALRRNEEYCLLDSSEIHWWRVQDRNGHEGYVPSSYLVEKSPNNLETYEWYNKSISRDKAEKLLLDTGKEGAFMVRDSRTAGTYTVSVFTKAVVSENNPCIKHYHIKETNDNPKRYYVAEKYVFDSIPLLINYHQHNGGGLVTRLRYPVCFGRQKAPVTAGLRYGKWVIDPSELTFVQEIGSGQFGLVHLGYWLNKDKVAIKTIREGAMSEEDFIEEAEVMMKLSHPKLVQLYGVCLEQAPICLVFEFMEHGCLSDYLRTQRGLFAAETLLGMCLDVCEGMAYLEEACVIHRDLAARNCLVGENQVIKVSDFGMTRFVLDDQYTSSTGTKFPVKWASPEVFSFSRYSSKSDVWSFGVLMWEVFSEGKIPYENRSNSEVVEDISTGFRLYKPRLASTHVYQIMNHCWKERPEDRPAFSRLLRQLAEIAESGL
Chain of Tyrosine-protein kinase JAK3 (Homo sapiens) (P52333 whole entry): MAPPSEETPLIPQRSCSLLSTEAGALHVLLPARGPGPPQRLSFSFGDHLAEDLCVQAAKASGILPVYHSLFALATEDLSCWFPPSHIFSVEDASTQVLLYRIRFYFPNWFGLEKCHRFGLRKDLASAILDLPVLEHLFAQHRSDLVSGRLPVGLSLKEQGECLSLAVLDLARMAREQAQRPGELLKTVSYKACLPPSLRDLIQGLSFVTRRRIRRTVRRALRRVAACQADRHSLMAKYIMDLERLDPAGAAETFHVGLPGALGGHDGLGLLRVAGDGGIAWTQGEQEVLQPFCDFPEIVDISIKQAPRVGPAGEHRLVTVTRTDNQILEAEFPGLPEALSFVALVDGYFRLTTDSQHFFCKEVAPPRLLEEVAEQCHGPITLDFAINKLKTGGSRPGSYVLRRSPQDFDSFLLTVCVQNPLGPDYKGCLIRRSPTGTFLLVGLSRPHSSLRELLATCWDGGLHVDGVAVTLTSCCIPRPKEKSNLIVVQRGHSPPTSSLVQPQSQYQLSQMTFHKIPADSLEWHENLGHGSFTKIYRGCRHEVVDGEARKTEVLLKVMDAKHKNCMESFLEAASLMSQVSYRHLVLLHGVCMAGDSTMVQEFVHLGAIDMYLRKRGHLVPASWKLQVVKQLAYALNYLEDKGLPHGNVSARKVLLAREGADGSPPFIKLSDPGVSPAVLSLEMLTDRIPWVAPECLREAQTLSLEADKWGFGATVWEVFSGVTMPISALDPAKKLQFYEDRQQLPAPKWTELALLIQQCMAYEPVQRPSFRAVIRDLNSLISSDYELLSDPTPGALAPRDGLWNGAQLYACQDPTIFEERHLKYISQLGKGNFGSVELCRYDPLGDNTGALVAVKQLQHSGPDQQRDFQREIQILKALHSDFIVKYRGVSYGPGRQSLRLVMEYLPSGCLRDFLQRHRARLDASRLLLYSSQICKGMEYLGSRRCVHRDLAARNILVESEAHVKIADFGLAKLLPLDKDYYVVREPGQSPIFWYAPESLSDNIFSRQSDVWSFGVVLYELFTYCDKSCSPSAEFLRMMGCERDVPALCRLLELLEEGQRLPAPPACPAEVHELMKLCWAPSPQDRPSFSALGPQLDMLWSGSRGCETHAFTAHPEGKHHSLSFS
Chain of Mitogen-activated protein kinase 14 (Homo sapiens) (Q16539 whole entry): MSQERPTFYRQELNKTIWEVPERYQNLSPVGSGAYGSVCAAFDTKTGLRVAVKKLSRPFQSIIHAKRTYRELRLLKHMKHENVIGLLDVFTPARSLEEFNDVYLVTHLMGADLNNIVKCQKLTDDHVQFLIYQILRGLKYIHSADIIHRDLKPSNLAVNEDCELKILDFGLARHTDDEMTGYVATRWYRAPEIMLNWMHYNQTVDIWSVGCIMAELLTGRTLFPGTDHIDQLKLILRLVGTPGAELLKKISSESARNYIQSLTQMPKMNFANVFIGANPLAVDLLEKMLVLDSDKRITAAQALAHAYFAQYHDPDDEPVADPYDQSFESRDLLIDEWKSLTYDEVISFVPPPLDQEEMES

inhibition [1] [%]	inhibition [2] [%]	inhibition [3] [%]	inhibition [4] [%]	inhibition [5] [%]	inhibition [6] [%]	inhibition [7] [%]	inhibition [8] [%]	inhibition [9] [%]	inhibition [10] [%]	inhibition [12] [%]	IC50 [13] [µM]	inhibition at 10 µM (CYP1A2) [%]	inhibition [14] [%]	inhibition [15] [%]	inhibition [16] [%]	inhibition [18] [%]	inhibition [19] [%]	inhibition [20] [%]	Structure (SMILES)	IC50 [17] [µM]	further results
55.5	-3.1	-3.4	76.5	82.5	1.5	-2.3	3.5	-5.8	5.4	1.8	0.0018	33	-2.3	-1.8	-3	4.1	1.3	4.3	COc1ccc2c(c1CN1CCNCC1)O/C(=C\c1n[nH]c3ncccc13)C2=O	5.6	inhibition [11]: -1.2%; solubility [21]: 182 µM (≈ 71.2 µg/mL); inhibition [22]: -7.5%
68	9.4	-1.8	95	83.6	4.4	-7.4	2	0.9	24.2	-0.5	0.0025	2	0.5	-1	1.1	-2.8	8.6	0.6	COc1ccc2c(c1C(C)N1CCNCC1)O/C(=C\c1n[nH]c3ncccc13)C2=O (centres undefined)	4	inhibition in vivo at 30 mg/kg [23]: 52.5%; IC50 [24]: 3.8 µM; IC50 [25]: 5.1 µM; IC50 [26]: 0.012 µM; Activity (Mus musculus): Non-toxic; IC50 [27]: 3.5 µM; IC50 [28]: 6.3 µM; IC50 [29]: 0.0019 µM; IC50 [30]: 0.0061 µM; solubility [21]: 558 µM (≈ 226 µg/mL); inhibition [22]: 5.3%
